Like-named read-outs stand apart in the source and are kept apart here.
Assays:
[1] = test system: HIV-1JR-FL envelope-mediated membrane fusion; type: cell-based
Excerpt: HIV-1 envelope-mediated membrane fusion was examined using a fluorescence resonance energy transfer (RET) assay (Litwin et al. 1996) with modifications. Briefly, HeLa cells that stably express HIV-1JR-FL gp120/gp41 (Litwin et al. 1996) and CEM.NKR-CCR5 cells (NTH AIDS Research and Reference Reagent Program, (Spenlehauer et al. 2001; Trkola et al. 1999)) were labeled separately overnight with fluorescein octadecyl ester (F18; Molecular Probes, Eugene, Oreg.) and rhodamine octadecyl ester (R18; Molecular Probes), respectively. Cells were washed in phosphate-buffered saline containing 15% feral bovine serum (PBSF) and co-seeded at 15,000 cells/well into a 384-well plate. Inhibitors were added, and the plates were incubated in PBSF plus 0.5% dimethlysulfoxide (DMSO) for 4h at 37°C. prior to measurement of RET using a Victor^2 plate reader (Perkin-Elmer, Boston, Mass.) as previously described (Litwin et al. 1996). The CD4 mAb Leu3a was used as a control inhibitor, and percent inhibition was calculated as: (RET in the absence of inhibitor—RET in the presence of inhibitor)/(RET in the absence of inhibitor—RET in the presence of Leu3a)×100.
(§1) Experimental design and data analysis were based on the combination index (CI) method (Chou et al. 1991; Chou et al. 1984). Compounds were tested individually and in combination at a fixed molar ratio over a range of serial dilutions. […] The mutually exclusive CI formula was used for combinations of CCR5 inhibitors, while the mutually non-exclusive formula was utilized for combinations of inhibitors to distinct targets (Chou et al. 1991). Each test was conducted 4-12 times. Synergy, additivity and antagonism are indicated by CI<1, CI=1 and CI>1, respectively.
(§2) In the Bonferroni correction, P=.alpha,/h, where n is the number of comparisons. Twenty-two synergy comparisons (11 compounds×2 CI values) were made based on data generated in the membrane fusion assay, resulting in a corrected P value of0.0023.

[2] = test system: reporter viruses pseudotyped with HIV-1JR-FL envelope; type: cell-based; conditions: HIV-1 Envelope JRFL; named 1st inhibitor with 2nd inhibitor PRO 140
Excerpt: (§3) A self-inactivating (SIN) vector was derived from the pNL4-3ΔEnv-luciferase vector (Dragic et al. 1996) by deleting 507 basepairs in the U3 region of the 3′ long terminal repeat (LTR) so as to remove the TATA, box and transcription factor binding sites. The human cytomegalovirus promoter was inserted upstream of the luciferase (luc) gene to enable expression of luciferase following integration.
(§4) SF162 envelopes were generated by cotransfection of 293T cells with the SIN vector and the appropriate pcDNA env-expressing vector as previously described (Dragic et al, 1996). […] Cultures were incubated for 72 h at 37°C. in DMEM containing 10% fetal bovine serum, […], 0.3 mg/mL geneticin, antibiotics, and 0.5% DMSO. Luciferase activity (relative light units or RLU) was measured using BrightGlo reagent (Promega, Madison, Wis.) according to the manufacturer's instructions. Percent inhibition was calculated as: (1-RLU in the presence of inhibitor/RLU in the absence of inhibitor)×100.
as §1, §2

[3] = test system: reporter viruses pseudotyped with HIV-1SF162 envelope; type: cell-based; conditions: HIV-1 Envelope SF162; named 1st inhibitor with 2nd inhibitor PRO 140
Excerpt: as §3, §4, §1, §2

CCR5 [4] = molecular target: T1, CCR5 (Homo sapiens, UniProt P51681); experiment: Competition binding: inhibition of 3H-UK-427,857 binding to CEM.NKR-CCR5 cells; parameters: host or cells: CEM.NKR-CCR5 (transduced human T cell leukemia line)
Excerpt: The cells were washed in PBSA and lysed with 0.5N HCl prior to scintillation counting using a Wallac1410 instrument.

CCR5 [5] = molecular target: T1, CCR5; experiment: Competition binding: inhibition of PRO 140-PE binding to CEM.NKR-CCR5 cells; parameters: host or cells: CEM.NKR-CCR5 (transduced human T cell leukemia line); conditions: for inhibition of PRO 140-PE binding to CEM.NKR-CCR5 cells: in words
Experimental: Azide was added to block CCR5 internalization during the assay.

[6] = single administration of TAK-652 solution; cited from earlier work
[7] = in vivo; cited from earlier work
[8] = test system: HIV-1 Env-mediated fusion of HeLa-EnvJRFL and CEM NKR-CCR5 cells; experiment: HIV-1 RET cell-cell fusion assay (Part II, Example 1); type: cell-based; conditions: PRO 140 in combination with the named compound; for Mean CF: 1:1 molar ratio, Combination Index at IC50 value
Experimental: and then diluted in DMSO to 200× the final, concentration to be utilized in the antiviral assay. Serial dilutions of small molecules were conducted in DMSO. Subsequent dilutions were conducted in medium to achieve a final DMSO concentration in the assay of 0.5%. Peptides and mAbs were diluted in PBS in the absence of DMSO.
HeLa cells were engineered to express HIV-1 gp120/gp41 from the macrophage-tropic primary isolate JRFL as described (HeLa-EnvJRFL: Litwin et al., 1996). Briefly, the HIV-1LA1 Env gene was excised from the plasmid pMA243 (Dragic et al., 1992) and the HIV-1JRFL Env gene was inserted. The HIV-1.sub JRFL Env gene was amplified from the plasmid pUCFL112-1 (Koyanagi et al., 1987). The resulting plasmid, designated JR-FL-pMA243, was sequenced by standard methods and transfected into HeLa cells using lipofectin (Gibco BRL/Invitrogen, Carlsbad, Calif.). HeLa-Env.sub JRFL transfectants were selected in methotrexate (Sigma, St. Louis, Mo.) and cloned twice by limiting dilution. The transduced human T cell leukemia line CEM NKR-CCR5 cells were obtained from the NIH AIDS Research and Reference Program (Cat. No. 458).
The HIV-1 RET assay has been described in detail previously (Litwin et al., 1996). Briefly, fluorescein octadecyl ester (F18; Molecular Probes, Eugene, Oreg.; 5 mg/ml in ethanol), was diluted 1:800 in DMEM labeling medium (DMEM; Invitrogen, Carlsbad, Calif.) with 10% fetal bovine serum (FBS; HyClone, Logan, Utah) and adjusted to an A506 of 0.34.+−0.10%. Octadecyl rhodamine B chloride (R18; Molecular Probes; 10 mg/ml in ethanol) was diluted 1:2050 in labeling medium and adjusted to an A565 of 0.52.+−0.10%. Both dyes were further diluted 2-fold by addition to cells in T75-cm^2 flasks. HeLa-EnvJRFL and CEM NKR-CCR5 cells were incubated overnight in F18- and R18-containing culture medium, respectively. The following day, medium from HeLa-EnvJRFL, cells was removed and 10 ml of 0.5 mM EDTA was added and incubated at 37°C. for 5 min. […] The centrifugation/wash step was repeated twice, after which the cells were counted and concentrations adjusted to 1.5×10^6 cells/ml. […] The plates were then read on a fluorescence plate reader (Victor^2, Perkin Elmer, Boston, Mass.) using the excitation/emission filter combinations shown in Table 5.
The “% Inhibition” was calculated according to the following formula: […]
Fifty percent inhibition (IC50) values were determined by fitting the inhibition data with a non-linear, four-parameter, variable slope equation (GraphPad Prism 4.02; GraphPad Software, San Diego, Calif.). […]
Cooperative inhibition effects of drug combinations were determined by the method of Chou and Talalay (1984). […] Combination Index (CI) and Dose Reduction (DR) values were calculated according to the following formulas: […]

CCR5 [9] = molecular target: T1, CCR5; experiment: RANTES-induced calcium mobilization in L1.2-CCR5 cells; type: cell-based; conditions: FIG. 4
Excerpt: Similar results were obtained for MIP-1.alpha, and MIP-1β

CCR5 lymphocytes = type: in vivo, human; conditions: 2 mg/kg
Experimental: Individuals were treated in sequential, dose-rising cohorts of 5 subjects (4 active and 1 placebo) each and evaluated for up to 120 days post-treatment. […] Safety assessments consisted of monitoring the following: vital signs (blood pressure, pulse, temperature, etc; hematology (hemoglobin, hematocrit, leukocytes, platelets, etc.); serum chemistries (AST/ALT, alkaline phosphatase, BUN, creatinine, etc.); urinalysis (pH, specific gravity, protein, glucose, leukocytes, etc.); and ECGs (12-lead).
Whole blood specimens were combined separately with the indicated phycoerythrin-labeled anti-CCR5 antibodies or with appropriate isotype-control antibodies. Erythocytes were lysed and leukocytes were stabilized using the ImmunoPrep Reagent System (Beckman Coulter), and the cells were analyzed on a TQ Prep™ flow cytometry workstation (Beckman Coulter). Data were expressed as the percent of CCR5 cells relative to all cells gated in the analysis.
For up to 60 days post-treatment, at the times indicated in FIG. 6, blood was collected and analyzed for CCR5 lymphocyte levels.

HIV-1 = conditions: repeated administration; cited from earlier work
[10] = named 1st inhibitor with 2nd inhibitor PRO 140, equimolar
[11] = named 1st inhibitor with 2nd inhibitor UK-427,857, equimolar

T1 sequence (P51681 whole entry): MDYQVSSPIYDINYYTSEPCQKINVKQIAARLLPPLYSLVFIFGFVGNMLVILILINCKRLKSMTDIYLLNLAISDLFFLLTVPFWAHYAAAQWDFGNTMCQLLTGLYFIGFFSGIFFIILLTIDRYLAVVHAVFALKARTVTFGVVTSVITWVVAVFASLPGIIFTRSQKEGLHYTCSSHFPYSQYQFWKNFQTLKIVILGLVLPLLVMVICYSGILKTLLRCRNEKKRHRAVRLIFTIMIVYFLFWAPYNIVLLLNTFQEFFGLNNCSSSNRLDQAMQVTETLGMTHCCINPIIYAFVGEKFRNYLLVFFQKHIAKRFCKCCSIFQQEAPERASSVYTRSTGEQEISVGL

COc1ccnc2[nH]cc(C(=O)C(=O)N3CCN(C(=O)c4ccccc4)C[C@H]3C)c12 [BMS-378806, (R)-N-(benzoyl)-3-methyl-N′-[(4-methoxy-7-azaindol-3-yl)-oxoacetyl]-piperazine]
C190 [1, 10]: 1.1 ± 0.22
CI50 [1, 10]: 1.3 ± 0.19
CI190 [2]: 0.74 ± 0.23
CI190 [3]: 0.82 ± 0.21

COC[C@@H](c1ccc(C(F)(F)F)cc1)N1CCN(C2(C)CCN(C(=O)c3c(C)ncnc3C)CC2)C[C@@H]1C [SCH-D]
C190 [1, 10]: 0.36 ± 0.06
C190 [1, 11]: 0.75 ± 0.02
inhibition of 3H-UK-427,857 binding (CCR5 [4]): blocked ^3H-UK-427,857 binding to background levels
CI190 [2]: 0.18 ± 0.04
CI190 [3]: 0.28 ± 0.11
impact on percent of cells gated for positive binding of PRO 140-PE (CCR5 [5]): little impact
inhibition of PRO 140-PE binding to CEM.NKR-CCR5 cells (CCR5 [5]): modest levels of inhibition

CCCCOCCOc1ccc(-c2ccc3c(c2)/C=C(/C(=O)Nc2ccc([S+]([O-])Cc4cncn4CCC)cc2)CCCN3CC(C)C)cc1 (centres unmarked) [TAK-652]
safety and tolerability [6]: safe and well tolerated

Cc1ccc(-c2ccc3c(c2)C=C(C(=O)Nc2ccc(C[N+](C)(C)C4CCOCC4)cc2)CCC3)cc1.[Cl-] [TAK-779]
local tolerability [7]: local injection site irritation

Cc1nnc(C(C)C)n1C1CC2CCC(C1)N2CC[C@H](NC(=O)C1CCC(F)(F)CC1)c1ccccc1 (some centres unmarked) [UK-427,857]
C190 [1, 10]: 0.40 ± 0.06
CI50 [1, 10]: 0.61 ± 0.5
Mean CF [8]: 0.59 ± 0.04

Cc1ccnc2c1NC(=O)c1cccnc1N2C1CC1 [nevirapine]
CI190 [2]: 0.73 ± 0.28
CI190 [3]: 0.63 ± 0.19

Cc1cn([C@H]2C[C@H](N=[N+]=[N-])[C@@H](CO)O2)c(=O)[nH]c1=O [zidovudine]
CI190 [2]: 0.85 ± 0.26
CI190 [3]: 1.0 ± 0.38

B1: RANTES: CC-chemokine that serves as a natural ligand for CCR5; purchased from R&D Systems (protein, UniProt P13501 24-91, looked up)
C-C motif chemokine 5: SPYSSDTTPCCFAYIARPLPRAHIKEYFYTSGKCSNPAVVFVTRKNRQVCANPEKKWVREYINSLEMS
C190 [1, 10]: 0.43 ± 0.05
C190 [1, 11]: 0.18 ± 0.01
Mean CF [8]: 0.59 ± 0.08
Mean Dose Reduction (Cpd in combination) ([8]; molar ratio 1:5): 1.75 ± 0.28
Mean Dose Reduction (Cpd in combination) ([8]; molar ratio 5:1): 5.39 ± 1.13

B2: PRO 140: humanized IgG4,kappa anti-CCR5 mAb; humanized version of the murine mAb PA14 (antibody, chains of the INN, looked up, V domains shown)
VH: EVQLVESGGGLVKPGGSLRLSCAASGYTFSNYWIGWVRQAPGKGLEWIGDIYPGGNYIRNNEKFKDKTTLSADTSKNTAYLQMNSLKTEDTAVYYCGSSFGSNYVFAWFTYWGQGTLVTVSS
VL: DIVMTQSPLSLPVTPGEPASISCRSSQRLLSSYGHTYLHWYLQKPGQSPQLLIYEVSNRFSGVPDRFSGSGSGTDFTLKISRVEAEDVGVYYCSQSTHVPLTFGQGTKVEIK
inhibition of RANTES-induced calcium mobilization vs HIV-1JR-FL replication (CCR5 [9]): blocks HIV-1 but not chemokine signaling
inhibition of 3H-UK-427,857 binding (CCR5 [4]; in words): blocked ^3H-UK-427,857 binding to background levels
CI190 [2]: 0.90 ± 0.15
CI190 [3]: 0.86 ± 0.33
binding of antibody 2D7 to CCR5 lymphocytes (CCR5 lymphocytes): significantly decreased
inhibition of PRO 140-PE binding to CEM.NKR-CCR5 cells (CCR5 [5]): Complete inhibition
control of HIV-1 replication (HIV-1): prolonged control of HIV-1 replication without viral escape
